According to patent US4818761A, “2-(4-pyridylaminomethyl)-benzimidazole derivatives having antiviral activity” (priority 1986, dated 1989):
Values after ≈ are worked out from the molar mass of the structure shown.

System: coxsackievirus type B4 (CB4)
Test: Inhibition of CB4 plaque formation in LLC-MK2 cells
Format: cell-based
Settings: CI = CD50 (LLC-MK2)/IC50 (plaque)

Which “CI CB4 (C)/(A)” value does the source give for `CC(C)n1c(CNc2ccncc2)nc2ccccc21.Cl` [XIII, 1-isopropyl-2-(4-pyridylaminomethyl)benzimidazole hydrochloride] here?
The value was > 1.

For `CCCCn1c(CNc2ccncc2)nc2cc(C)ccc21` [XLII], which “CI CB4 (C)/(A)” value is on record?
Its value is 1,010.

For `CCCCCn1c(CNc2ccncc2)nc2ccccc21` [XVI], which “CI CB4 (C)/(A)” value is on record?
The value was > 2,828.

With `Cn1c(CNc2ccncc2)nc2ccccc21` [X] as the compound, how does the “CI CB4 (C)/(A)” value read?
Its value is > 31.

Which “CI CB4 (C)/(A)” value does the source give for `Ic1ccc2[nH]c(CNc3ccncc3)nc2c1` [III] here?
The value was > 3.

With `CCc1ccc(-n2c(CNc3ccncc3)nc3ccccc32)cc1` [LXVI] as the compound, how does the “CI CB4 (C)/(A)” value read?
The value was > 37.

For `CC=Cn1c(CNc2ccncc2)nc2ccccc21` [XIV], which “CI CB4 (C)/(A)” value is on record?
Its value is > 36.

Which “CI CB4 (C)/(A)” value does the source give for `CCCCCCn1c(CNc2ccncc2)nc2ccccc21` [XVIII] here?
Its value is 544.

With `CCc1cc2nc(CNc3ccncc3)[nH]c2cc1Cl` [XXXII] as the compound, how does the “CI CB4 (C)/(A)” value read?
The value was 7.

Same assay, conditions: Coxsackievirus; plaque reduction, LLC-MK2 cells, 37° C.

With `CCc1cc2[nH]c(CNc3ccncc3)nc2cc1Br` [XXXI, 2-(4-pyridylaminomethyl)-5(6)-ethyl-6(5)-bromobenzimidazole] as the compound, how does the IC50 read?
Its IC50 is > 10 µg/mL.

For `OCCn1c(CNc2ccncc2)nc2ccccc21` [XX], which IC50 is on record?
The IC50 was > 100 µg/mL.

For `CC(C)n1c(CNc2ccncc2)nc2ccccc21.Cl` [XIII, 1-isopropyl-2-(4-pyridylaminomethyl)benzimidazole hydrochloride], which IC50 is on record?
The IC50 was 85 µg/mL.

With `CCCCn1c(CNc2ccncc2)nc2cc(C)ccc21` [XLII] as the compound, how does the IC50 read?
Its IC50 is 1.4 µg/mL (≈ 4.76 µM).

For `CCCCCn1c(CNc2ccncc2)nc2ccccc21` [XVI], which IC50 is on record?
The IC50 was < 0.5 µg/mL.

Which IC50 does the source give for `Cn1c(CNc2ccncc2)nc2ccccc21` [X] here?
Its IC50 is 32 µg/mL (≈ 134 µM).

For `Ic1ccc2[nH]c(CNc3ccncc3)nc2c1` [III], which IC50 is on record?
Its IC50 is 33 µg/mL (≈ 94.2 µM).

For `CCc1ccc(-n2c(CNc3ccncc3)nc3ccccc32)cc1` [LXVI], which IC50 is on record?
The IC50 was 2.7 µg/mL (≈ 8.22 µM).

Which IC50 does the source give for `CC=Cn1c(CNc2ccncc2)nc2ccccc21` [XIV] here?
Its IC50 is 56.2 µg/mL (≈ 213 µM).

Which IC50 does the source give for `CCCCCCn1c(CNc2ccncc2)nc2ccccc21` [XVIII] here?
Its IC50 is 1.3 µg/mL (≈ 4.21 µM).

With `CCc1cc2nc(CNc3ccncc3)[nH]c2cc1Cl` [XXXII] as the compound, how does the IC50 read?
Its IC50 is 12.5 µg/mL (≈ 43.6 µM).

System: rhinovirus type 14 (HRV14)
Test: Inhibition of HRV14 plaque formation in HeLa cells
Format: cell-based
Settings: Enterovirus, HRV14; plaque reduction, HeLa cells, 33° C.

With `CCc1cc2[nH]c(CNc3ccncc3)nc2cc1Br` [XXXI, 2-(4-pyridylaminomethyl)-5(6)-ethyl-6(5)-bromobenzimidazole] as the compound, how does the IC50 read?
The IC50 was 1.4 µg/mL (≈ 4.23 µM).

Which IC50 does the source give for `CCCCn1c(CNc2ccncc2)nc2cc(C)ccc21` [XLII] here?
Its IC50 is > 50 µg/mL.

Which IC50 does the source give for `CCCCCn1c(CNc2ccncc2)nc2ccccc21` [XVI] here?
Its IC50 is > 50 µg/mL.

With `Cn1c(CNc2ccncc2)nc2ccccc21` [X] as the compound, how does the IC50 read?
Its IC50 is > 100 µg/mL.

For `Ic1ccc2[nH]c(CNc3ccncc3)nc2c1` [III], which IC50 is on record?
Its IC50 is 6.2 µg/mL (≈ 17.7 µM).

For `CCc1ccc(-n2c(CNc3ccncc3)nc3ccccc32)cc1` [LXVI], which IC50 is on record?
Its IC50 is > 100 µg/mL.

Which IC50 does the source give for `CCc1cc2nc(CNc3ccncc3)[nH]c2cc1Cl` [XXXII] here?
Its IC50 is < 1 µg/mL.

System: not listed separately
Test: in vitro
Settings: monkey, llc-mk2 cells

Which CC50 does the source give for `CCc1cc2[nH]c(CNc3ccncc3)nc2cc1Br` [XXXI, 2-(4-pyridylaminomethyl)-5(6)-ethyl-6(5)-bromobenzimidazole] here?
The CC50 was 88.4 µg/mL (≈ 267 µM).

With `OCCn1c(CNc2ccncc2)nc2ccccc21` [XX] as the compound, how does the CC50 read?
The CC50 was > 2000 µg/mL.

With `CC(C)n1c(CNc2ccncc2)nc2ccccc21.Cl` [XIII, 1-isopropyl-2-(4-pyridylaminomethyl)benzimidazole hydrochloride] as the compound, how does the CC50 read?
Its CC50 is > 100 µg/mL.

Which CC50 does the source give for `CCCCn1c(CNc2ccncc2)nc2cc(C)ccc21` [XLII] here?
The CC50 was 1410 µg/mL (≈ 4800 µM).

With `CCCCCn1c(CNc2ccncc2)nc2ccccc21` [XVI] as the compound, how does the CC50 read?
The CC50 was 1410 µg/mL (≈ 4800 µM).

Which CC50 does the source give for `Cn1c(CNc2ccncc2)nc2ccccc21` [X] here?
Its CC50 is > 1000 µg/mL.

Which CC50 does the source give for `Ic1ccc2[nH]c(CNc3ccncc3)nc2c1` [III] here?
Its CC50 is > 100 µg/mL.

Which CC50 does the source give for `CCc1ccc(-n2c(CNc3ccncc3)nc3ccccc32)cc1` [LXVI] here?
Its CC50 is > 100 µg/mL.

With `CC=Cn1c(CNc2ccncc2)nc2ccccc21` [XIV] as the compound, how does the CC50 read?
Its CC50 is > 2000 µg/mL.

With `CCCCCCn1c(CNc2ccncc2)nc2ccccc21` [XVIII] as the compound, how does the CC50 read?
Its CC50 is 707 µg/mL (≈ 2290 µM).

Which CC50 does the source give for `CCc1cc2nc(CNc3ccncc3)[nH]c2cc1Cl` [XXXII] here?
Its CC50 is 88.4 µg/mL (≈ 308 µM).

System: enterovirus type 70 (EV70)
Test: Inhibition of EV70 plaque formation in LLC-MK2 cells
Format: cell-based
Settings: CI = CD50 (LLC-MK2)/IC50 (plaque)

For `CCc1cc2[nH]c(CNc3ccncc3)nc2cc1Br` [XXXI, 2-(4-pyridylaminomethyl)-5(6)-ethyl-6(5)-bromobenzimidazole], which “CI EV70 (C)/(A)” value is on record?
Its value is 74.

For `CCCCn1c(CNc2ccncc2)nc2cc(C)ccc21` [XLII], which “CI EV70 (C)/(A)” value is on record?
The value was 240.

With `CCCCCn1c(CNc2ccncc2)nc2ccccc21` [XVI] as the compound, how does the “CI EV70 (C)/(A)” value read?
The value was 643.

For `Cn1c(CNc2ccncc2)nc2ccccc21` [X], which “CI EV70 (C)/(A)” value is on record?
The value was > 30.

Which “CI EV70 (C)/(A)” value does the source give for `Ic1ccc2[nH]c(CNc3ccncc3)nc2c1` [III] here?
The value was > 15.

For `CCCCCCn1c(CNc2ccncc2)nc2ccccc21` [XVIII], which “CI EV70 (C)/(A)” value is on record?
Its value is 16.

Which “CI EV70 (C)/(A)” value does the source give for `CCc1cc2nc(CNc3ccncc3)[nH]c2cc1Cl` [XXXII] here?
The value was 134.

Same assay, conditions: Enterovirus D; plaque reduction, LLC-MK2 cells, 33° C.

Which IC50 does the source give for `CCc1cc2[nH]c(CNc3ccncc3)nc2cc1Br` [XXXI, 2-(4-pyridylaminomethyl)-5(6)-ethyl-6(5)-bromobenzimidazole] here?
The IC50 was 1.2 µg/mL (≈ 3.62 µM).

Which IC50 does the source give for `CCCCn1c(CNc2ccncc2)nc2cc(C)ccc21` [XLII] here?
Its IC50 is 5.9 µg/mL (≈ 20 µM).

Which IC50 does the source give for `CCCCCn1c(CNc2ccncc2)nc2ccccc21` [XVI] here?
Its IC50 is 2.2 µg/mL (≈ 7.47 µM).

For `Cn1c(CNc2ccncc2)nc2ccccc21` [X], which IC50 is on record?
The IC50 was 33 µg/mL (≈ 138 µM).

For `Ic1ccc2[nH]c(CNc3ccncc3)nc2c1` [III], which IC50 is on record?
The IC50 was 6.5 µg/mL (≈ 18.6 µM).

With `CCc1ccc(-n2c(CNc3ccncc3)nc3ccccc32)cc1` [LXVI] as the compound, how does the IC50 read?
Its IC50 is > 100 µg/mL.

For `CCCCCCn1c(CNc2ccncc2)nc2ccccc21` [XVIII], which IC50 is on record?
The IC50 was 44 µg/mL (≈ 143 µM).

With `CCc1cc2nc(CNc3ccncc3)[nH]c2cc1Cl` [XXXII] as the compound, how does the IC50 read?
Its IC50 is 0.66 µg/mL (≈ 2.3 µM).

System: enterovirus type 70 (EV70)
Test: Inhibition of EV70 cytopathogenic effect (CPE) in LLC-MK2 cells
Format: cell-based
Settings: Enterovirus D; * Virus CPE inhibition assay, LLC-MK2 cells, 33° C.

Which IC50 does the source give for `OCCn1c(CNc2ccncc2)nc2ccccc21` [XX] here?
Its IC50 is > 100 µg/mL.

For `CC(C)n1c(CNc2ccncc2)nc2ccccc21.Cl` [XIII, 1-isopropyl-2-(4-pyridylaminomethyl)benzimidazole hydrochloride], which IC50 is on record?
Its IC50 is > 100 µg/mL.

Which IC50 does the source give for `CC=Cn1c(CNc2ccncc2)nc2ccccc21` [XIV] here?
The IC50 was > 100 µg/mL.

System: poliovirus type 2 (Polio2)
Test: microbe, parasite or virus in culture
Format: cell-based
Settings: CI = CD50 (LLC-MK2)/IC50 (plaque)

For `CCc1cc2[nH]c(CNc3ccncc3)nc2cc1Br` [XXXI, 2-(4-pyridylaminomethyl)-5(6)-ethyl-6(5)-bromobenzimidazole], which “CI Polio2 (C)/(A)” value is on record?
The value was 1.

Which “CI Polio2 (C)/(A)” value does the source give for `CCCCn1c(CNc2ccncc2)nc2cc(C)ccc21` [XLII] here?
Its value is 51.

With `CCCCCn1c(CNc2ccncc2)nc2ccccc21` [XVI] as the compound, how does the “CI Polio2 (C)/(A)” value read?
Its value is 74.

With `Cn1c(CNc2ccncc2)nc2ccccc21` [X] as the compound, how does the “CI Polio2 (C)/(A)” value read?
Its value is > 6.

With `CCc1cc2nc(CNc3ccncc3)[nH]c2cc1Cl` [XXXII] as the compound, how does the “CI Polio2 (C)/(A)” value read?
Its value is 3.

Same assay, conditions: Enterovirus C, LLC-MK2, read-out: IC50 Polio2

Which IC50 does the source give for `CCc1cc2[nH]c(CNc3ccncc3)nc2cc1Br` [XXXI, 2-(4-pyridylaminomethyl)-5(6)-ethyl-6(5)-bromobenzimidazole] here?
Its IC50 is 82 µg/mL (≈ 248 µM).

Which IC50 does the source give for `CCCCn1c(CNc2ccncc2)nc2cc(C)ccc21` [XLII] here?
Its IC50 is 27.6 µg/mL (≈ 93.7 µM).

With `CCCCCn1c(CNc2ccncc2)nc2ccccc21` [XVI] as the compound, how does the IC50 read?
Its IC50 is 19 µg/mL (≈ 64.5 µM).

Which IC50 does the source give for `Cn1c(CNc2ccncc2)nc2ccccc21` [X] here?
The IC50 was 170 µg/mL (≈ 713 µM).

Which IC50 does the source give for `Ic1ccc2[nH]c(CNc3ccncc3)nc2c1` [III] here?
The IC50 was > 100 µg/mL.

Which IC50 does the source give for `CCc1ccc(-n2c(CNc3ccncc3)nc3ccccc32)cc1` [LXVI] here?
The IC50 was > 100 µg/mL.

Which IC50 does the source give for `CCCCCCn1c(CNc2ccncc2)nc2ccccc21` [XVIII] here?
The IC50 was > 100 µg/mL.

With `CCc1cc2nc(CNc3ccncc3)[nH]c2cc1Cl` [XXXII] as the compound, how does the IC50 read?
The IC50 was 35 µg/mL (≈ 122 µM).
